What was measured:
Assay type in all cases: cell-based
[1] = tested on: Wnt activity (Sp5-Luc reporter, human Sp5 promoter with eight TCF/LEF binding sites) in SW480 colon carcinoma cells; test: Screening assay for Wnt activity: Sp5-Luc reporter gene assay in SW480 cells; conditions: 10-point dose-response starting from 10 μM, overnight incubation
In short: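 SW480 cells stably carrying Sp5-Luc reporter (eight TCF/LEF sites) plated at 4,000/well in 1% FBS medium with compound (10-point 1:3 series from 10 μM, 0.1% DMSO) overnight at 37 °C. BrightGlo luminescence normalized to DMSO; EC50 by four-parameter fit, else % inhibition at 10 μM.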

[2] = tested on: LL29 cells (primary human fibroblasts derived from IPF patients) treated with TGF-β1, α-smooth muscle actin; test: Inhibition of the fibrotic process: αSMA staining in TGF-β1 treated primary human fibroblasts from IPF patients (LL29 cells); conditions: Fibroblast, 96 h, LL29 cells treated with TGF-β1 (20 ng/mL), 4 days
[3] = tested on: SW480 colon cancer cells; test: Cell viability assay (CellTiter-Blue) in SW480 colon cancer cells; conditions: Homo sapiens, 96 h, four days incubation, CellTiter-Blue cell viability
In short: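 About 2×10^3 SW480 colon cancer cells per well were exposed to compound (8-point 1:3 dilutions, 10 μM to 0.004 μM) for four days at 37 °C. Viability was read by CellTiter-Blue resazurin reduction (~3 h, Ex 560/Em 590). EC50 from nonlinear regression; above 10 μM, % inhibition at 10 μM is reported.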

EC50 [1]: 800 nM | EC50 [3]: 2510 nM
SMILES: O=C(Nc1cncc(-c2ccc3[nH]nc(-c4nc5c(-c6ccc(Cl)s6)cncc5[nH]4)c3n2)c1)C1CCC1 [Compound 1011, N-(5-(3-(7-(5-Chlorothiophen-2-yl)-3H-imidazo[4,5-c]pyridin-2-yl)-1H-pyrazolo[4,3-b]pyridin-5-yl)pyridin-3-yl)cyclobutanecarboxamide]
EC50 [2]: 1050 nM

— patent US10188634B2, “3-(3H-imidazo[4,5-C]pyridin-2-yl)-1 H-pyrazolo[4,3-B]pyridines and therapeutic uses thereof” (Samumed, LLC, priority 2015, dated 2019)
